Several values for one entry are separate records, joined by “and”; a condition that tells them apart may be missing. Equal values may be shown once.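 Values below derive from 48-hour exposures of cells grown in 96-well plates, with endpoints linearly interpolated between the two concentrations bracketing the appropriate inhibition level. At the GI50, growth is halved. TGI: total growth inhibition.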
Legend:
Experiment in all cases: NCI tumour cell line growth inhibition, 48 h
COLO 205 colon = system: COLO 205 colon
DU-145 prostate = system: DU-145 prostate
M14 melanoma = system: M14 melanoma
OVCAR-5 ovarian = system: OVCAR-5 ovarian
PC-3 prostate = system: PC-3 prostate
SF-295 CNS = system: SF-295 CNS
SN12C renal = system: SN12C renal
T-47D breast = system: T-47D breast
LXFL 529 NSCLC = system: LXFL 529 NSCLC
SNB-78 CNS = system: SNB-78 CNS

SMILES | TGI (COLO 205 colon) [µM] | TGI (DU-145 prostate) | TGI (M14 melanoma) | TGI (OVCAR-5 ovarian) | TGI (PC-3 prostate) [µM] | TGI (SF-295 CNS) | TGI (SN12C renal) | TGI (T-47D breast) [µM] | TGI (LXFL 529 NSCLC) [µM] | TGI (SNB-78 CNS) [µM] | GI50 (COLO 205 colon) [µM] | GI50 (DU-145 prostate) | GI50 (M14 melanoma) [µM] | GI50 (OVCAR-5 ovarian) [µM] | GI50 (PC-3 prostate) [µM] | GI50 (SF-295 CNS) [µM] | GI50 (SN12C renal) [µM] | GI50 (T-47D breast) [µM] | GI50 (SNB-78 CNS) [µM]
COc1c(C)c(OCC=C(C)C)cc(CO)c1CO | > 100 | > 100 µM | > 100 µM | > 100 µM | > 100 | > 100 µM | > 100 µM | > 100 |  |  |  |  |  |  |  |  |  |  | 
COCOCCC#CCO |  |  | > 100 µM | > 100 µM |  | > 100 µM | > 100 µM |  | > 100 | > 100 |  |  |  |  |  |  |  |  | 
Cc1nc2sccn2c1-c1nc2sccn2c1/C=C1/C(=O)Nc2ccccc21 | 10.5 | 21.5 µM | > 100 µM | > 100 µM | 46.4 | 8.09 µM | > 100 µM | 63.6 |  |  | 2.63 | 4.64 µM | 3.99 | 12.9 | 2.32 | 2.12 | 16.8 | 3.47 | 
COc1ccc(CNc2c3ccccc3nc3ccccc23)cc1F | 5.64 | 12.4 µM | 3.59 µM | 13.5 µM | 12 | 10.4 µM | 11.9 µM | 21.5 |  |  | 2.01 | 3.65 µM | 1.79 | 3.52 | 3.14 | 2.68 | 2.93 | 4.39 | 
CCCCCCCCc1cc2c(O)c(c1)Cc1cc(CCCCCCCC)cc(c1O)Cc1cc(CCCCCCCC)cc(c1O)Cc1cc(CCCCCCCC)cc(c1O)Cc1cc(CCCCCCCC)cc(c1O)Cc1cc(CCCCCCCC)cc(c1O)C2 | > 100 |  |  | > 100 µM |  | > 100 µM | > 100 µM |  | > 100 | > 100 |  |  |  |  |  |  |  |  | 
NC(=S)N/N=C/c1ncccc1O | > 431 | 17.1 µM and > 114 µM | 4.72 µM and 2.69 µM | > 82.4 µM and 154 µM | > 1000 | 27.1 µM and 3.94 µM | 24.1 µM and 45.2 µM | > 823 |  | > 1000 | 3.48 | 1.46 µM and 0.77 µM | 0.684 | 5.21 | 0.895 | 2.47 | 2.04 |  | 64.7
Cc1cccc(NC2=C(Cl)C(=O)c3nc(C)ccc3C2=O)c1 | 4.1 | 2.55 µM | 2.72 µM | 3.61 µM | 4.8 | 2.96 µM | 2.5 µM | 4.29 |  |  | 1.86 | 1.27 µM | 1.32 | 1.82 | 1.29 | 1.49 | 1.17 | 1.65 | 
O=[N+]([O-])c1ccccc1N=Nc1c(O)[nH]c2c(Cl)cc(Cl)cc12 | > 100 | > 100 µM | > 100 µM | > 100 µM | > 100 | > 61 µM | > 100 µM | > 100 |  |  |  |  |  |  |  |  |  |  | 
COC(=O)/C=C/c1cc(OC(C)=O)c2c(c1)C(C(=O)OC)C(c1ccc(OC(C)=O)c(OC(C)=O)c1)O2 (centres undefined) | > 50.6 | > 100 µM | 15.1 µM | > 100 µM | > 49 | 14.1 µM | > 42.5 µM | > 76.8 |  |  | 3.43 | 0.131 µM | 0.0411 | 3.42 | 0.371 | 0.222 | 0.253 | 3.11 | 
CCOC(=O)Nc1c(C)nc2ccccn12 | > 100 | > 100 µM | > 100 µM | > 100 µM | > 100 | > 100 µM | > 100 µM | > 100 |  |  | > 100 | > 100 µM | > 100 | > 100 | > 100 | > 100 | > 100 | > 100 | 
CCCCCCCC(=O)OCC1OC(n2cc(F)c(=O)[nH]c2=O)C(N)C(OC(=O)CCCCCCC)C1O (centres undefined) | 34 |  | 32.2 µM |  |  | 31.3 µM | 32.5 µM |  | 30.9 | 39.5 |  |  |  |  |  |  |  |  | 
CCCCCCn1c(-c2ccc(C(=O)O/N=C(\N)c3ccc4c(c3)OCO4)cc2)nc(-c2ccccc2)c1-c1ccccc1 | 5.37 | 2.66 µM | 22.1 µM | 13.8 µM | 11.3 | 3.35 µM | 4.09 µM | 5.11 |  |  | 2.15 | 1.33 µM | 3.75 | 2.9 | 2.62 | 1.69 | 1.87 | 2.03 | 
CCCCCCCCSC1=C(Cl)C(=O)C(OC)=C(OC)C1=O | 38 | 40.5 µM | 16.9 µM | 21.1 µM | 31.9 | 47.4 µM | 18.4 µM | 36.2 |  |  |  |  |  |  |  |  |  |  | 
Cc1nc2c(Br)cc(Br)cc2c(=O)n1-c1nnc(-c2cccc(Cl)c2Cl)c(N)n1 | > 100 | > 100 µM | 22.7 µM | 74.5 µM | > 100 | 41.1 µM | 62 µM | > 100 |  |  | 32.9 | 27.8 µM | 4.8 | 26.6 | 23.6 | 13.2 | 19 | 55.2 | 
CC(=O)N/C(=C\c1ccccc1/C=C(\NC(C)=O)c1nc2cc(C)c(C)cc2[nH]1)c1nc2cc(C)c(C)cc2[nH]1 | > 100 |  | 23.9 µM | 94.6 µM |  |  | 35.3 µM |  | 30.8 | > 100 |  |  |  |  |  |  |  |  | 
COc1ccc(Cl)cc1NC(=O)c1ccc(NC2=C(Cl)C(=O)N(Cc3ccccc3)C2=O)cc1 | > 100 | > 100 µM | > 100 µM | > 100 µM | > 100 | > 100 µM | > 100 µM | > 100 |  |  | > 100 | > 100 µM | > 100 | > 100 | 52.6 | 36.2 | 23 | > 100 | 
O=C(Nc1nc(-c2c[nH]c3ccccc23)cs1)c1n[nH]c(=O)c2ccccc12 | > 60.1 | > 31 µM | 20.1 µM | > 100 µM | > 100 | 21.9 µM | > 100 µM | > 96.2 |  |  | 2.47 | 3.33 µM | 3.48 | 73 | 10.2 | 1.55 | 10.8 | > 46.4 | 

Reference: PubChem BioAssay (NCI)
